Publication PMC4549708, “Inhibition of neuraminidase by Ganoderma triterpenoids and implications for neuraminidase inhibitor design” (Scientific Reports, 2015)

Tests used:
NA (H3N2, E119V) = assay type: biochemical, Influenza A virus A/Babol/36/2005(H3N2)(E119V); settings: 200 µM
H1N1 (A/HA-58pdm-TR) = assay: microbe, parasite or virus in culture; assay type: cell-based, oseltamivir-resistant strain; settings: Influenza A virus, H1N1, MDCK
NA (H1N1, N295S) = assay type: biochemical, Influenza A virus A/California/04/2009(H1N1)(N295S); settings: 200 µM

| Molecule | Inhibition rate (%) NA(H3N2, E119V) (NA (H3N2, E119V)) [%] | IC50 (H1N1 (A/HA-58pdm-TR)) [µM] | Inhibition rate (%) NA(H1N1, N295S) (NA (H1N1, N295S)) [%] |
| --- | --- | --- | --- |
| CC(=O)O[C@H]1C[C@H]([C@H](C)CC/C=C(\C)C(=O)O)[C@@]2(C)CC=C3C(=CC[C@H]4C(C)(C)C(=O)CC[C@]34C)[C@]12C [Compound 1, Ganoderic acid T-Q] | 55.4 ± 4.1 | – | – |
| C/C(=C\CC[C@@H](C)[C@H]1C[C@H](O)[C@@]2(C)C3=CC[C@H]4C(C)(C)C(=O)CC[C@]4(C)C3=CC[C@]12C)C(=O)O [Compound 2, Ganoderic acid TR] | 59.2 ± 1.9 | 245 | – |
| CC(=O)O[C@H]1C[C@H]([C@H](C)CC/C=C(\C)C(=O)O)[C@@]2(C)CC=C3C(=CC[C@H]4C(C)(C)[C@@H](O)CC[C@]34C)[C@]12C [Compound 3, Ganoderic acid T-N] | 43.6 ± 1.2 | – | 27.5 ± 1.4 |
| C/C(=C/CC[C@@H](C)[C@H]1CC[C@@]2(C)C3=CC[C@H]4C(C)(C)C(=O)CC[C@]4(C)C3=CC[C@]12C)C(=O)O [Compound 4, Ganoderic acid Sz] | 22.5 ± 0.3 | – | 29.3 ± 5.1 |
| C/C(=C/CC[C@@H](C)[C@H]1CC[C@@]2(C)C3=CC[C@H]4C(C)(C)C(=O)CC[C@]4(C)C3=CC[C@]12C)C(=O)O [Compound 5, Ganoderic acid S] | 44.9 ± 3.2 | – | 34.1 ± 2.2 |
| C/C(=C\CC[C@@H](C)[C@H]1CC[C@@]2(C)C3=CC[C@H]4C(C)(C)[C@@H](O)CC[C@]4(C)C3=CC[C@]12C)C(=O)O [Compound 6, Ganoderic acid Y] | 23.2 ± 3.4 | – | 16.9 ± 2.8 |
| C[C@H](CC(=O)C[C@@H](C)[C@H]1C[C@H](O)[C@@]2(C)C3=C(C(=O)C[C@]12C)[C@@]1(C)CCC(=O)C(C)(C)[C@@H]1C[C@@H]3O)C(=O)O [Compound 7, Ganoderic acid A] | 32.1 ± 2.7 | – | 15.3 ± 1.8 |
| C/C(=C\C(=O)CC(C)C(=O)O)[C@H]1C[C@H](O)[C@@]2(C)C3=C(C(=O)C[C@]12C)[C@@]1(C)CCC(=O)C(C)(C)[C@@H]1C[C@@H]3O (stereo partly shown) [Compound 8, Ganoderenic acid A] | 29.1 ± 2.3 | – | 12.4 ± 1.8 |
| C[C@H](CC(=O)C[C@@H](C)[C@H]1C[C@H](O)[C@@]2(C)C3=C(C(=O)C[C@]12C)[C@@]1(C)CC[C@H](O)C(C)(C)[C@@H]1C[C@@H]3O)C(=O)O [Compound 9, Ganoderic acid C2] | 45.4 ± 1.1 | – | 13.7 ± 2.4 |
| CC(CC(=O)C[C@@H](C)[C@H]1CC(=O)[C@@]2(C)C3=C(C(=O)C[C@]12C)[C@@]1(C)CC[C@H](O)C(C)(C)[C@@H]1CC3=O)C(=O)O (stereo partly shown) [Compound 10, Ganoderic acid AM1] | 31.3 ± 3.2 | – | 9.3 ± 1.6 |
| CC(=O)O[C@@H]1C(=O)C2=C([C@@H](O)C[C@H]3C(C)(C)[C@@H](O)CC[C@]23C)[C@]2(C)C(=O)C[C@H]([C@H](C)CC(=O)CC(C)C(=O)O)[C@@]12C (stereo partly shown) [Compound 11, Ganoderic acid K] | 33.5 ± 2.4 | – | 14.2 ± 2.9 |
| C/C(=C\C(=O)CC(C)C(=O)O)[C@H]1CC(=O)[C@@]2(C)C3=C(C(=O)C[C@]12C)[C@@]1(C)CC[C@H](O)C(C)(C)[C@@H]1CC3=O (stereo partly shown) [Compound 12, Ganoderenic acid H] | 38.6 ± 2.3 | – | 12.8 ± 5.1 |
| CC(=O)O[C@@H]1C(=O)C2=C(C(=O)C[C@H]3C(C)(C)[C@@H](O)CC[C@]23C)[C@]2(C)C(=O)C[C@H]([C@H](C)CC(=O)CC(C)C(=O)O)[C@@]12C (stereo partly shown) [Compound 13, Ganoderic acid H] | 27.9 ± 1.5 | – | 16.9 ± 2.4 |
| CC(CC(=O)C[C@@H](C)[C@H]1CC(=O)[C@@]2(C)C3=C(C(=O)C[C@]12C)[C@@]1(C)CC[C@H](O)C(C)(C)[C@@H]1C[C@@H]3O)C(=O)O (stereo partly shown) [Compound 14, Ganoderic acid B] | 38.7 ± 1.6 | – | 12.8 ± 1.4 |
| C/C(=C\C(=O)CC(C)C(=O)O)[C@H]1CC(=O)[C@@]2(C)C3=C(C(=O)C[C@]12C)[C@@]1(C)CCC(=O)C(C)(C)[C@@H]1CC3=O (stereo partly shown) [Compound 15, Ganoderenic acid F] | 24.2 ± 3.9 | – | 24.4 ± 4.4 |
| C/C(=C\C(=O)CC(C)C(=O)O)C1CC(O)C2(C)C3=C(C(=O)CC12C)C1(C)CCC(O)C(C)(C)C1CC3O (stereo not shown) [Compound 16, Ganoderenic acid C] | 37.5 ± 2.4 | – | 13.2 ± 2.2 |

| Molecule | Inhibition rate (%) NA(H3N2, E119V) (NA (H3N2, E119V)) [%] | IC50 (H1N1 (A/HA-58pdm-TR)) [µM] | Inhibition rate (%) NA(H1N1, N295S) (NA (H1N1, N295S)) [%] |
| --- | --- | --- | --- |
| CC(CC(=O)C[C@@H](C)[C@H]1CC(=O)[C@@]2(C)C3=C(C(=O)[C@@H](O)[C@]12C)[C@@]1(C)CC[C@H](O)C(C)(C)[C@@H]1CC3=O)C(=O)O (stereo partly shown) [Compound 18, Ganoderic acid C6] | 20.7 ± 0.5 | – | 17.6 ± 3.5 |
| C[C@H](CC(=O)C[C@@H](C)[C@H]1CC(=O)[C@@]2(C)C3=C(C(=O)C[C@]12C)[C@@]1(C)CCC(=O)C(C)(C)[C@@H]1C[C@@H]3O)C(=O)O [Compound 19, Ganoderic acid C1] | 32.0 ± 3.4 | – | 14.7 ± 3.9 |
| C/C(=C\CC[C@@H](C)[C@H]1CC[C@@]2(C)C3=C(CC[C@]12C)[C@@]1(C)CCC(=O)C(C)(C)[C@@H]1CC3=O)C(=O)O [Compound 20, Ganoderic acid DM] | 28.8 ± 0.5 | – | 19.0 ± 2.4 |
| CC(CC(=O)C[C@@H](C)[C@H]1C[C@H](O)[C@@]2(C)C3=C(C(=O)C[C@]12C)[C@@]1(C)CCC(=O)C(C)(C)[C@@H]1CC3)C(=O)O (stereo partly shown) [Compound 21, Ganolucidic acid A] | 22.9 ± 3.8 | – | 21.0 ± 4.2 |
| C/C(=C\[C@@H](O)C[C@@H](C)[C@H]1CC(=O)[C@@]2(C)C3=C(C(=O)C[C@]12C)[C@@]1(C)CC[C@H](O)C(C)(C)[C@@H]1CC3=O)C(=O)O [Compound 22, Ganoderic acid Zeta] | 18.7 ± 4.5 | – | 25.5 ± 4.9 |
| C/C(=C\[C@@H](O)C[C@@H](C)[C@H]1CC(=O)[C@@]2(C)C3=C(C(=O)C[C@]12C)[C@@]1(C)CCC(=O)C(C)(C)[C@@H]1C[C@@H]3O)C(=O)O [Compound 23, Ganoderic acid LM2] | 12.9 ± 1.0 | – | 15.4 ± 0.6 |
| CC(=O)O[C@@H]1C(=O)C2=C(C(=O)C[C@H]3C(C)(C)C(=O)CC[C@]23C)[C@]2(C)C(=O)C[C@H]([C@H](C)CC(=O)CC(C)C(=O)O)[C@@]12C (stereo partly shown) [Compound 24, Ganoderic acid F] | 19.9 ± 2.6 | – | 17.6 ± 2.0 |
| C/C(=C\CC[C@@H](C)[C@H]1CC[C@@]2(C)C3=CC[C@H]4C(C)(C)C(=O)CC[C@]4(C)C3=CC[C@]12C)CO [Compound 25, Ganoderol A] | 18.2 ± 2.7 | – | 22.6 ± 1.8 |
| C/C(=C\CC[C@@H](C)[C@H]1CC[C@@]2(C)C3=CC[C@H]4C(C)(C)[C@@H](O)CC[C@]4(C)C3=CC[C@]12C)CO [Compound 26, Ganoderol B] | 19.1 ± 6.1 | – | 19.9 ± 1.1 |
| C[C@H](CCC=C(CO)CO)[C@H]1CC[C@@]2(C)C3=CC[C@H]4C(C)(C)C(=O)CC[C@]4(C)C3=CC[C@]12C [Compound 27, Ganoderiol F] | 16.8 ± 1.2 | – | 9.5 ± 4.5 |
| C[C@H](CC[C@H](O)C(C)(C)O)[C@H]1CC[C@@]2(C)C3=CC[C@H]4C(C)(C)C(=O)CC[C@]4(C)C3=CC[C@]12C [Compound 28, Ganodermanondiol] | 34.2 ± 0.9 | – | 19.0 ± 4.2 |
| C[C@H](CC[C@H](O)[C@](C)(O)CO)[C@H]1CC[C@@]2(C)C3=CC[C@H]4C(C)(C)C(=O)CC[C@]4(C)C3=CC[C@]12C [Compound 29, Ganodermanontriol] | 12.2 ± 3.4 | – | 7.9 ± 3.2 |
| C/C(C=O)=C\CC[C@@H](C)[C@H]1CC[C@@]2(C)C3=CC[C@H]4C(C)(C)[C@@H](O)CC[C@]4(C)C3=CC[C@]12C [Compound 30, Lucialdehyde A] | 25.9 ± 8.1 | – | 5.8 ± 2.4 |
| C/C(C=O)=C\CC[C@@H](C)[C@H]1CC[C@@]2(C)C3=C(CC[C@]12C)[C@@]1(C)CCC(=O)C(C)(C)[C@@H]1CC3=O [Compound 31, Lucialdehyde B] | 43.3 ± 1.0 | – | 11.2 ± 1.3 |
| Ganoderenic acid D [Compound 17] | 32.2 ± 3.4 | – | 13.8 ± 3.1 |
